Laboratory results taken from PubChem BioAssay AID330 (DTP/NCI, 2004).
Toxic doses and inconclusive results are not listed. The calls were made as follows: active = survival T/C of 150% or more; inactive = T/C below 125% in these data.

Tested on: P388 leukemia ip, CD2F1 mice, survival T/C
Test: NCI In Vivo Anticancer Drug Screen. Data for tumor model P388 Leukemia (intraperitoneal) in CD2F1 (CDF1) mice
Settings: endpoint: median survival time, higher = longer survival
How it was run: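 Mice carrying the transplanted tumor received test compound or vehicle. Survival was recorded in each group, and the value is the treated-group measurement divided by that of the vehicle-treated control group.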

[1] = dose: 50.0 mg/kg/injection, schedule: Q01DX005 (ip), vehicle: saline with Tween-80
[2] = dose: 100.0 mg/kg/injection, schedule: Q01DX005 (ip), vehicle: saline with Tween-80
[3] = dose: 200.0 mg/kg/injection, schedule: Q01DX005 (ip), vehicle: saline with Tween-80
[4] = dose: 50.0 mg/kg/injection, schedule: Q01DX009 (ip), vehicle: Klucel (hydroxypropylcellulose) (HPC)
[5] = dose: 100.0 mg/kg/injection, schedule: Q01DX009 (ip), vehicle: Klucel (hydroxypropylcellulose) (HPC)
[6] = dose: 50.0 mg/kg/injection, schedule: Q01DX009 (ip), vehicle: saline with Tween-80
[7] = dose: 100.0 mg/kg/injection, schedule: Q01DX009 (ip), vehicle: saline with Tween-80
[8] = dose: 200.0 mg/kg/injection, schedule: Q01DX009 (ip), vehicle: saline with Tween-80
[9] = dose: 100.0 mg/kg/injection, schedule: Q04DX003 (ip), vehicle: saline with Tween-80
[10] = dose: 200.0 mg/kg/injection, schedule: Q04DX003 (ip), vehicle: saline with Tween-80
[11] = dose: 100.0 mg/kg/injection, schedule: Q01DX009 (ip), vehicle: saline
[12] = dose: 200.0 mg/kg/injection, schedule: Q01DX009 (ip), vehicle: saline
[13] = dose: 50.0 mg/kg/injection, schedule: Q01DX005 (ip), vehicle: Klucel (hydroxypropylcellulose) (HPC)

Measured: T/C

Cc1c(C)c(C)c(S(=O)(=O)OCCCl)c(C)c1C
inactive: [1] 98 % of control | [2] 92 % of control | [3] 95 % of control

CC(=O)c1cccc(NC(=O)C2C(=O)C(=O)N(c3cccc(C(C)=O)c3)C2=O)c1 (configuration not stated)
inactive: [4] 91 % of control | [5] 104 % of control | dose: 200.0 mg/kg/injection, schedule: Q01DX009 (ip), vehicle: Klucel (hydroxypropylcellulose) (HPC) 101 % of control

Clc1ccc(COCc2ccccc2Cn2ccnc2)cc1
inactive: dose: 60.0 mg/kg/injection, schedule: Q01DX005 (ip), vehicle: saline with Tween-80 95 % of control | dose: 120.0 mg/kg/injection, schedule: Q01DX005 (ip), vehicle: saline with Tween-80 99 % of control

CSC(C(=O)c1ccccc1)c1ccccc1 (configuration not stated)
inactive: dose: 25.0 mg/kg/injection, schedule: Q01DX009 (ip), vehicle: saline + alcohol 87 % of control | dose: 50.0 mg/kg/injection, schedule: Q01DX009 (ip), vehicle: saline + alcohol 96 % of control | dose: 100.0 mg/kg/injection, schedule: Q01DX009 (ip), vehicle: saline + alcohol 112 % of control

NC(=S)N/N=C/c1c(Br)nc2n1CCS2
inactive: dose: 100.0 mg/kg/injection, schedule: Q01DX001 (ip), vehicle: Klucel (hydroxypropylcellulose) (HPC) 99 % of control | dose: 200.0 mg/kg/injection, schedule: Q01DX001 (ip), vehicle: Klucel (hydroxypropylcellulose) (HPC) 92 % of control | dose: 400.0 mg/kg/injection, schedule: Q01DX001 (ip), vehicle: Klucel (hydroxypropylcellulose) (HPC) 93 % of control

CN(C)CC1CC1C1(C)c2ccccc2Sc2ccccc21 (configuration not stated)
inactive: [4] 98 % of control | [5] 95 % of control

Cn1c(=O)c2cc(C#N)c(N)nc2n(C)c1=O
inactive: dose: 75.0 mg/kg/injection, schedule: Q01DX009 (ip), vehicle: saline with Tween-80 104 % of control | dose: 150.0 mg/kg/injection, schedule: Q01DX009 (ip), vehicle: saline with Tween-80 96 % of control | dose: 300.0 mg/kg/injection, schedule: Q01DX009 (ip), vehicle: saline with Tween-80 93 % of control

CC(C)OC(=S)SCC(=O)c1ccc(Br)cc1
inactive: [6] 114 % of control | [7] 107 % of control | [8] 106 % of control

O=[N+]([O-])c1ccc(/C=C/C=C/c2ccc(Cl)c(S(=O)(=O)F)c2)c(Cl)c1
inactive: dose: 100.0 mg/kg/injection, schedule: Q01DX009 (ip), vehicle: saline sonified 95 % of control | dose: 200.0 mg/kg/injection, schedule: Q01DX009 (ip), vehicle: saline sonified 95 % of control | dose: 400.0 mg/kg/injection, schedule: Q01DX009 (ip), vehicle: saline sonified 91 % of control

Cc1ccc2c(c1)CCCN2C=O
inactive: dose: 50.0 mg/kg/injection, schedule: Q04DX003 (ip), vehicle: saline with Tween-80 105 % of control | [9] 100 % of control | [10] 110 % of control

COc1ccc2c(ccc3c(N)ncnc32)c1
inactive: dose: 100.0 mg/kg/injection, schedule: Q04DX002 (ip), vehicle: saline with Tween-80 92 % of control | dose: 200.0 mg/kg/injection, schedule: Q04DX002 (ip), vehicle: saline with Tween-80 103 % of control

Clc1ccc2[nH]c3nc4ccccc4nc3c2c1
inactive: dose: 25.0 mg/kg/injection, schedule: Q01DX009 (ip), vehicle: saline with Tween-80 100 % of control | [6] 105 % of control | [9] 90 % of control | [10] 100 % of control | dose: 400.0 mg/kg/injection, schedule: Q04DX003 (ip), vehicle: saline with Tween-80 104 % of control

COc1ccc2[nH]c3c(c2c1)C(=O)c1ccncc1C3=O
inactive: dose: 37.5 mg/kg/injection, schedule: Q04DX002 (ip), vehicle: Klucel (hydroxypropylcellulose) (HPC) 87 % of control | dose: 75.0 mg/kg/injection, schedule: Q04DX002 (ip), vehicle: Klucel (hydroxypropylcellulose) (HPC) 91 % of control

COc1ccc2c(c1)CCC(C(O)C1(Sc3c(OC)cccc3OC)CC1)C2=O (configuration not stated)
inactive: [1] 100 % of control | [2] 100 % of control | [3] 100 % of control

CCOC(=O)Nc1cc2c(c(N)n1)N=C(c1ccc(C)cc1)CN2
inactive: dose: 1.0 mg/kg/injection, schedule: Q01DX005 (ip), vehicle: saline with Tween-80 109 % of control | dose: 3.0 mg/kg/injection, schedule: Q01DX005 (ip), vehicle: saline with Tween-80 109 % of control | dose: 6.0 mg/kg/injection, schedule: Q01DX005 (ip), vehicle: saline with Tween-80 121 % of control

CCOCC(=O)OCC
inactive: [11] 105 % of control | [12] 101 % of control | dose: 400.0 mg/kg/injection, schedule: Q01DX009 (ip), vehicle: saline 102 % of control

O=C1NC(=O)[C@H]2C3C=CC([C@@H]12)[C@@H]1C(=O)NC(=O)[C@H]31
inactive: dose: 25.0 mg/kg/injection, schedule: Q01DX009 (ip), vehicle: water 105 % of control | dose: 50.0 mg/kg/injection, schedule: Q01DX009 (ip), vehicle: water 100 % of control | dose: 100.0 mg/kg/injection, schedule: Q01DX009 (ip), vehicle: water 97 % of control | dose: 200.0 mg/kg/injection, schedule: Q01DX009 (ip), vehicle: water 92 % of control

Cc1ccc(NC(=O)C(F)(F)F)cc1
inactive: [6] 113 % of control | [7] 108 % of control | [8] 108 % of control

CCOC(=O)Nc1nn(-c2ccccn2)c(=O)[nH]1
inactive: dose: 50.0 mg/kg/injection, schedule: Q01DX005 (ip), vehicle: distilled water + alcohol 107 % of control | dose: 100.0 mg/kg/injection, schedule: Q01DX005 (ip), vehicle: distilled water + alcohol 101 % of control | dose: 200.0 mg/kg/injection, schedule: Q01DX005 (ip), vehicle: distilled water + alcohol 99 % of control

CCCCCCCCCCCCCCCCC[CH2][Sn](=[O])[OH]
inactive: dose: 50.0 mg/kg/injection, schedule: Q01DX009 (ip), vehicle: saline 111 % of control | [11] 113 % of control | [12] 114 % of control

C=C[C@H]1[C@H](OC2OC(CO)C(O)C(O)C2O)OC=C2C(=O)N3CCc4c([nH]c5ccccc45)C3C[C@H]21 (some centres not stated)
inactive: dose: 100.0 mg/kg/injection, schedule: Q01DX001 (ip), vehicle: saline with Tween-80 107 % of control | dose: 200.0 mg/kg/injection, schedule: Q01DX001 (ip), vehicle: saline with Tween-80 94 % of control | dose: 400.0 mg/kg/injection, schedule: Q01DX001 (ip), vehicle: saline with Tween-80 89 % of control

CSc1ncn(C)c1C(N)=O
inactive: [13] 97 % of control | dose: 100.0 mg/kg/injection, schedule: Q01DX005 (ip), vehicle: Klucel (hydroxypropylcellulose) (HPC) 99 % of control | dose: 200.0 mg/kg/injection, schedule: Q01DX005 (ip), vehicle: Klucel (hydroxypropylcellulose) (HPC) 99 % of control

CCC1OC(OC)C=CC1=O (configuration not stated)
inactive: dose: 12.5 mg/kg/injection, schedule: Q01DX005 (ip), vehicle: Klucel (hydroxypropylcellulose) (HPC) 113 % of control | dose: 12.5 mg/kg/injection, schedule: Q01DX005 (ip), vehicle: saline 101 % of control | dose: 25.0 mg/kg/injection, schedule: Q01DX005 (ip), vehicle: Klucel (hydroxypropylcellulose) (HPC) 114 % of control | dose: 25.0 mg/kg/injection, schedule: Q01DX005 (ip), vehicle: saline 108 % of control | [13] 124 % of control | dose: 50.0 mg/kg/injection, schedule: Q01DX005 (ip), vehicle: saline 98 % of control | dose: 100.0 mg/kg/injection, schedule: Q01DX005 (ip), vehicle: saline 104 % of control
